# Patent US4079133A, “Safer method for dissolving gallstones combining hyodeoxycholic acid with chenodeoxycholic acids” (Warren-Teed Laboratories, Inc., priority 1976, dated 1978)
# Experiments:
# [1] = Pharmacological studies employing rats: liver damage and safening effect (summary statements); type: in vivo
# Description: The compositions are generally administered in a ratio of CDCA to HDCA in the range of from about 0.7 to about 2.0 and, preferably in the range of from about 0.8 to about 1.5. […] Hog bile generally contains from about 10 to about 50% CDCA and from about 10 to about 50% of HDCA in addition to other bile acids.
# [2] = design: species or system Long-Evans female rats; conditions: rat, in vivo
# Protocol: Ten Long-Evans female rats were divided into two groups of five each. The rats were fed Purina® lab chow mixed with CDCA or dried hog bile. The dried hog bile contains approximately 25% CDCA and approximately 40% HDCA and was mixed in the feed at four times the concentration as CDCA so that each group of rats would receive approximately 600 mg. CDCA/kg./day. Following a 2 week treatment, the 10 rats plus five control rats were sacrificed and the blood collected for liver enzyme determinations.
# [3] = CDCA alone, or HDCA with CDCA relative to CDCA
compound,measurement,setting,value
"C[C@H](CCC(=O)O)[C@H]1CC[C@H]2[C@@H]3[C@H](O)C[C@@H]4C[C@H](O)CC[C@]4(C)[C@H]3CC[C@]12C [CDCA, 3α, 7α-dihydroxy-5β-cholanic acid]",periportal hepatitis,[1]; CDCA alone,slight to mild periportal hepatitis
same,alkaline phosphatase (alk. phos.) in the blood,[1]; [3],elevations
same,serum glutamic pyruvic transaminase (SGPT) in the blood,[1]; [3],elevations
same,serum glutamic-oxaloacetic transaminase (SGOT) in the blood,[1]; [3],elevations
same,nuclear enlargement of the hepatocytes,"[1]; CDCA alone, slight to mild periportal hepatitis also seen",nuclear enlargement of the hepatocytes
same,"Bodyweights, Week 0",[2],284.6 gms
same,"Bodyweights, Week 1",[2],256.4 gms
same,"Feed Consumption, Week 0",[2],18.6 gms/da
same,"Feed Consumption, Week 2",[2],11.7 gms/da
